According to patent US5036046A, “Method for enhancing healing of corneal endothelial wounds” (Eye Research Institute of Retina Foundation, Inc., priority 1988, dated 1991):
“Also recorded” adds a separate entry of the source. Like-named read-outs stand apart in the source and are kept apart here.

Assays:
[1] = test system: rabbit corneal endothelial cells; assay: Cell shape morphometry of cultured rabbit corneal endothelial cells (Example 1); settings: for potentiation of EGF-induced elongation: 10^-5 M (equimolar), in presence of EGF; for rank order of potency on corneal endothelial cell shape: cyclooxygenase inhibitors, with EGF; for cell shape at confluence: cells cultured seven days in the presence of the agent; for distribution of major axes (Amax): versus control
[2] = test system: cultured rabbit corneal endothelium; assay: Pharmacological regulation of morphology and mitosis in cultured rabbit corneal endothelium; type: cell-based
[3] = test system: cultured corneal endothelial cells; settings: control cultures and cultures with EGF added
[4] = test system: Corneal endothelial cells; assay: f-actin labelling with rhodamine labelled phallacidin in cultured corneal endothelial cells; settings: 1 week in culture
[5] = test system: most cell culture systems; settings: cited from earlier work
cat corneal endothelium = settings: 22° C.; cited from earlier work
[6] = test system: endothelium of excised corneas; assay: Endothelial wound area / closure in excised corneas (specular microscopy)
[7] = test system: Corneal endothelial cells; assay: Transmission electron microscopy of pharmacologically modulated endothelial phenotypes; settings: treated cultures
[8] = test system: endothelium of excised corneas; assay: Cell migration near the wound boundary in excised corneas; type: cell-based, New Zealand white rabbits; settings: EGF 10 ng/ml, indomethacin 1 μM in M-K medium
[9] = test system: endothelium of excised corneas; assay: Shape of the cells near the wound boundary in excised corneas
[10] = agent added to TPA containing medium

CC(C(=O)O)c1ccc(C(=O)c2cccs2)cc1 (stereo not shown) [suprofen]
potentiation of EGF-induced elongation [1]: Potentiation of EGF-induced elongation also occurs
rank order of potency on corneal endothelial cell shape [1]: indomethacin<suprofen<flurbiprofen

CCCCC[C@H](O)/C=C/[C@@H]1[C@@H](C/C=C\CCCC(=O)O)[C@@H](O)C[C@H]1O [pgF2α]
effect on the elongation of Amax produced by EGF and indomethacin ([1]; increasing concentrations added to cells grown with EGF and indomethacin): has no effect

COc1ccc2c(c1)c(CC(=O)O)c(C)n2C(=O)c1ccc(Cl)cc1 [indomethacin]
effect on TPA-induced elongation [2, 10]: marked enhancement of cellular elongation
effect on cell density / mitogenic response to TPA [2, 10]: had no effect on final cell density
cell shape at confluence [1]: elongated at confluence with a stellate shape
distribution of major axes (Amax) ([1]; cultured with agent): increases
rank order of potency on corneal endothelial cell shape [1]: indomethacin<suprofen<flurbiprofen
synthesis of pgE2 [3]: totally inhibits
f-actin staining pattern [4]: diffuse reticular staining throughout the cytoplasm

Cholera toxin
cell shape / elongation, agent alone [2]: had no effect on cell shape
effect on EGF and INDO-induced elongation [2]: antagonized
effect on EGF-induced elongation [2]: EGF-induced elongation did not occur
effect on TPA-induced elongation [2]: did not prevent elongation
effect on cell density / mitogenic response to TPA [2]: potentiate the mitogenic response
effect on cell density / mitosis in presence of EGF and INDO [2]: without preventing increased cell density
effect on the mitogenic effect of EGF [2]: potentiated

CC(C(=O)O)c1ccc(-c2ccccc2)c(F)c1 (stereo not shown) [flurbiprofen]
rank order of potency on corneal endothelial cell shape [1]: indomethacin<suprofen<flurbiprofen

epidermal growth factor [EGF]
time at which DNA synthesis reaches a maximum [5]: about 22 hours
time at which increased DNA synthesis begins after addition [5]: approximately 15 hours
time for association to be complete (cat corneal endothelium): approximately 120 minutes
cell density ([1]; at confluence, versus control conditions): little or no effect
cell shape at confluence [1]: spindle-shaped at confluence
distribution of major axes (Amax) ([1]; cultured with agent): significantly greater distribution of major axes
ratio Per/Amax ([1]; cultured with agent, perfectly round cell 3.14): decreases significantly
synthesis of pgE2 [3]: unaffected
wound closure time compared with the control group ([6]; EGF 10 ng/ml, indomethacin 1 μM in M-K medium): shortened the wound closure time
time of maximum wound area after wounding ([6]; EGF 10 ng/ml, indomethacin 1 μM in M-K medium, control 20 minutes): 10 min
time for wound area to decrease to 50% of the original size ([6]; EGF 10 ng/ml, indomethacin 1 μM in M-K medium, control about 240 minutes): ≤ 120 min
time for wounds to close to 80% of the original size ([6]; after wounding, EGF treated): ≤ 250 min
ultrastructure by transmission electron microscopy [7]: Junctional complexes were absent
migration of cells near the wound boundary compared with the control group [8]: migrated significantly more; also recorded: significantly increased migration
relative average percent change of the shape factor, difference from control (FIG. 3) ([9]; EGF+indomethacin at 50, 100, 150 minutes, EGF at 100, 150 minutes, p<0.001): significantly different from the control group
time of the peak of the shape change ([9]; one cornea of each group, control 200 minutes): 150 min

C=C[C@@]1(C)CC(=O)[C@]2(O)[C@@]3(C)[C@@H](O)CCC(C)(C)[C@@H]3[C@H](O)[C@H](OC(C)=O)[C@@]2(C)O1 [Forskolin]
effect on EGF and INDO-induced elongation ([2]; agent added with EGF and INDO): prevented
effect on cell density / mitosis in presence of EGF and INDO ([2]; agent added with EGF and INDO): inhibited endothelial mitosis

Pertussis toxin
cell density / mitosis, agent alone [2]: had no effect on either parameter
cell density in combination with EGF or INDO [2]: without significantly altering cell density
cell shape / elongation, agent alone [2]: had no effect on either parameter
cell shape in combination with EGF or INDO [2]: restored polygonal cell shape

C[C@@H]1C[C@H]2[C@@H]3CCC4=CC(=O)C=C[C@]4(C)[C@@]3(F)[C@@H](O)C[C@]2(C)[C@@]1(O)C(=O)CO [dexamethasone]
potentiation of EGF-induced elongation [1]: has no effect

CCCCCCCCCCCCCC(=O)O[C@@H]1[C@@H](C)[C@@]2(O)[C@@H](C=C(CO)C[C@]3(O)C(=O)C(C)=C[C@@H]23)[C@H]2C(C)(C)[C@]12OC(C)=O [TPA]
cell density / mitosis, agent alone [2]: increased cell density
cell shape / elongation, agent alone [2]: caused elongation
